Assays:
[1] = molecular target: T1, Bile acid receptor (Homo sapiens, UniProt Q96RI1); assay: Agonist activity at human recombinant FXR expressed in HEK293 cells coexpressing CMX-GAL4N by luciferase reporter gene assay; type: functional, cell-based
T1 sequence (Q96RI1 whole entry): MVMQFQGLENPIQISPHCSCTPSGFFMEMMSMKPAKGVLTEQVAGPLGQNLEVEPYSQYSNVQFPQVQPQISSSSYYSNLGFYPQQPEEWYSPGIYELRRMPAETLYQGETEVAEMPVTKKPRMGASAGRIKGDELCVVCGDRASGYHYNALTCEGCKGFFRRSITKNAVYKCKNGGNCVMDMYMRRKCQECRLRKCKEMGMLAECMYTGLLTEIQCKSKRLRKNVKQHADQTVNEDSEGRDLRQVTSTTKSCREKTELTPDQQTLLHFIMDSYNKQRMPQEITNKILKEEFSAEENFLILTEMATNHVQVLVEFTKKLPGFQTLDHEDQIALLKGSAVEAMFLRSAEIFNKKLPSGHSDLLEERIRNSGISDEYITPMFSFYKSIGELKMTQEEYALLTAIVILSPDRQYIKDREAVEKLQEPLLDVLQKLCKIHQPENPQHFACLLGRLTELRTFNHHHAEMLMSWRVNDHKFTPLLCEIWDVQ

[2] = molecular target: T2, Bile salt export pump (Homo sapiens, UniProt O95342, E297G); assay: Enhancement of human BSEP E297G mutant trafficking to cell membrane in MDCK2 cells co-expressing NTCP assessed as accumulation of [3H]taurocholate at 10 uM preincubated for 24 hrs prior incubation with [3H]taurocholate measured after 2 hrs by liquid scintillation counting; conditions: mdck-ii
[3] = molecular target: T2, Bile salt export pump; assay: Enhancement of human BSEP E297G mutant trafficking to cell membrane in MDCK2 cells co-expressing NTCP assessed as accumulation of [3H]taurocholate at 1 uM preincubated for 24 hrs prior incubation with [3H]taurocholate measured after 2 hrs by liquid scintillation counting; conditions: mdck-ii

T2 sequence (O95342 whole entry E297G): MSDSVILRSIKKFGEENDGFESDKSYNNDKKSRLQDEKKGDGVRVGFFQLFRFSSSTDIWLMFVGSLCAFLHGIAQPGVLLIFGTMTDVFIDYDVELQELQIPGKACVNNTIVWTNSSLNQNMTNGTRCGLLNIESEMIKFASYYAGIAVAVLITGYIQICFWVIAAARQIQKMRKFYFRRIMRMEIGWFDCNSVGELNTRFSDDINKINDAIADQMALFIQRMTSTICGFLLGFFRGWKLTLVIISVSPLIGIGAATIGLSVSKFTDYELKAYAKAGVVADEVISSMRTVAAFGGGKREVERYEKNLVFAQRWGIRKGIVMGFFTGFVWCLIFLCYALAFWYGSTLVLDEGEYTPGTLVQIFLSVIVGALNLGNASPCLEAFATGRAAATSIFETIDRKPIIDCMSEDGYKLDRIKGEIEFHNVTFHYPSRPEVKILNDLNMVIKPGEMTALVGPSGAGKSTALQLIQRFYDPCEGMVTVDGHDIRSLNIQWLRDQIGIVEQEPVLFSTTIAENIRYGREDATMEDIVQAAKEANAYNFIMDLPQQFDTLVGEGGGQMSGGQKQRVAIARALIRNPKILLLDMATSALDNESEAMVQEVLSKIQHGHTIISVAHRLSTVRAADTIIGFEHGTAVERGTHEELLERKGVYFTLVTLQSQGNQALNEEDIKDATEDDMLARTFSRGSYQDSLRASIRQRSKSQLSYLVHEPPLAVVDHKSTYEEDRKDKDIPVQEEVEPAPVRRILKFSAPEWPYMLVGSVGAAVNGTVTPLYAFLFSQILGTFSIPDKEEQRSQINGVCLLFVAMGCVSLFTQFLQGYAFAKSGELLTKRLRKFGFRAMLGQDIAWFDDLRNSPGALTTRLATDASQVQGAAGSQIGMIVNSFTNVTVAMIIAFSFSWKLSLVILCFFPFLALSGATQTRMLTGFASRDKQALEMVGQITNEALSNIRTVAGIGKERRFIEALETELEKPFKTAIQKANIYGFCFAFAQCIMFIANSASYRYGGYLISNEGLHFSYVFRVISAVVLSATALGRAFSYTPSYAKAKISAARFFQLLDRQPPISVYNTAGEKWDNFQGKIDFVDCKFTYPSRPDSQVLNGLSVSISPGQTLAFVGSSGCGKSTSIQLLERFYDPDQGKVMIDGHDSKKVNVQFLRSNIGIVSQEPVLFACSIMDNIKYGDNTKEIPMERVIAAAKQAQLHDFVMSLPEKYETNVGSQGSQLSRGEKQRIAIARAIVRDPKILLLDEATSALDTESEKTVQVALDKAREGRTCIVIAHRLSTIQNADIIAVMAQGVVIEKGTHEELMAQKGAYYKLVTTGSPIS

EC50 [1] [µM]	Compound	Activity [2] [%]	Activity [3] [%]
2.6	CC(C)c1onc(-c2c(Cl)cccc2Cl)c1COc1ccc(C(=O)N(Cc2ccccc2)c2ccc(C(=O)O)cc2)c(Cl)c1		
	CCCCN(C(=O)c1cccc(C(=O)O)c1)c1ccc(OCc2c(-c3c(Cl)cccc3Cl)noc2C(C)C)cc1Cl	42	59
	CC(C)c1onc(-c2c(Cl)cccc2Cl)c1COc1ccc(N(C)C(=O)c2cccc(C(=O)O)c2)c(Cl)c1	60	
3	CC(C)c1onc(-c2c(Cl)cccc2Cl)c1COc1ccc(C(=O)N(c2cccc(C(=O)O)c2)c2cccc3ccccc23)c(Cl)c1		
	C[C@H](CCC(=O)O)[C@H]1CC[C@H]2[C@@H]3[C@H](O)C[C@@H]4C[C@H](O)CC[C@]4(C)[C@H]3CC[C@]12C [CHENODIOL]	50	
0.41	CC(C)c1onc(-c2c(Cl)cccc2Cl)c1COc1ccc(N(C(=O)c2cccc(C(=O)O)c2)c2cccc3ccccc23)c(Cl)c1	59	
> 10	CC(C)c1onc(-c2c(Cl)cccc2Cl)c1COc1ccc(N(Cc2ccccc2)C(=O)c2cccc(C(=O)O)c2)c(Cl)c1	50	
1.1	CCCCN(C(=O)c1ccc(OCc2c(-c3c(Cl)cccc3Cl)noc2C(C)C)cc1Cl)c1cccc(C(=O)O)c1		
	CC(C)c1onc(-c2c(Cl)cccc2Cl)c1COc1ccc(/C=C/c2cccc(C(=O)O)c2)c(Cl)c1	33	
	CC(C)c1onc(-c2c(Cl)cccc2Cl)c1COc1ccc(NC(=O)c2cccc(C(=O)O)c2)c(Cl)c1	75	
	CC(C)c1onc(-c2c(Cl)cccc2Cl)c1COc1ccc(C(=O)N(Cc2ccccc2)c2cccc(C(=O)O)c2)c(Cl)c1	31	

Compound	EC50 [1] [µM]	Activity [2] [%]	Activity [3] [%]
C[C@H](CCC(=O)O)[C@H]1CC[C@H]2[C@@H]3CC[C@@H]4C[C@H](O)CC[C@]4(C)[C@H]3C[C@H](O)[C@]12C [DEOXYCHOLIC ACID]	50		

From ChEMBL document CHEMBL2029276, “E297G mutated bile salt export pump (BSEP) function enhancers derived from GW4064: structural development study and separation from farnesoid X receptor-agonistic activity” (Bioorg Med Chem Lett, 2012)
